ChEMBL document CHEMBL4414591, “Isolation and Total Synthesis of Mabuniamide, a Lipopeptide from an Okeania sp. Marine Cyanobacterium” (J Nat Prod, 2019)

Columns and labels:
[1] = tested on: L6; experiment: Induction of glucose uptake in rat L6 cells incubated for 22 hrs in presence of glucose by microplate reader assay; format: functional, cell-based
[2] = tested on: Plasmodium falciparum; experiment: Antiprotozoal activity against erythrocytic stage of Plasmodium falciparum 3D7 incubated for 72 hrs by lactate dehydrogenase assay; format: functional, organism-based; settings: 3D7, 72 h
[3] = tested on: L6; experiment: Cytotoxicity against rat L6 cells assessed as decrease in cell viability at 10 to 40 uM incubated for 22 hrs by MTT assay; format: cell-based; settings: l6, 22 h

Row | IC50 [2] [nM] | SMILES | Activity [1] | Activity [3]
1 |  | CCCC(=O)N(C)[C@@H](C)C(=O)N1CCC[C@H]1C(=O)N(C)[C@@H](Cc1ccccc1)C(=O)N[C@@H](CC(C)C)C(=O)N(C)[C@@H](C(=O)N[C@H](C(=O)NCC(=O)N(C)[C@H](Cc1ccccc1)C(=O)N1CCC[C@H]1C(=O)OC)C(C)C)C(C)C (stereo in doubt; form 2) | Dose-dependent effect | 
2 | 2800 | CCCC(=O)N(C)[C@@H](C)C(=O)N1CCC[C@H]1C(=O)N(C)[C@H](Cc1ccccc1)C(=O)N[C@@H](CC(C)C)C(=O)N(C)[C@@H](C(=O)N[C@H](C(=O)NCC(=O)N(C)[C@@H](Cc1ccccc1)C(=O)N1CCC[C@H]1C(=O)OC)C(C)C)C(C)C |  | 
3 | 1400 | CCCC(=O)N(C)[C@@H](C)C(=O)N1CCC[C@H]1C(=O)N(C)[C@@H](Cc1ccccc1)C(=O)N[C@@H](CC(C)C)C(=O)N(C)[C@@H](C(=O)N[C@H](C(=O)NCC(=O)N(C)[C@H](Cc1ccccc1)C(=O)N1CCC[C@H]1C(=O)OC)C(C)C)C(C)C (stereo in doubt; form 1) [listing 1 of 2 here] |  | Non-Toxic
4 |  | CCCC(=O)N(C)[C@@H](C)C(=O)N1CCC[C@H]1C(=O)N(C)[C@@H](Cc1ccccc1)C(=O)N[C@@H](CC(C)C)C(=O)N(C)[C@@H](C(=O)N[C@H](C(=O)NCC(=O)N(C)[C@H](Cc1ccccc1)C(=O)N1CCC[C@H]1C(=O)OC)C(C)C)C(C)C (stereo in doubt; form 1) [listing 2 of 2 here] | Dose-dependent effect | 
